Results from patent publication US11613558B2, “Peptides and pharmaceutical compositions for treating eye diseases” (Yuyu Pharma, Inc., priority 2018, dated 2023).
Structures can show the parent of a compound that is named as a salt. Numbered stars: 1 amine (or outer) side, 2 acyl side, 3 side chain; on linkers, the order of the positions; unused ones are H or OH. Square brackets hold non-standard residues; d marks the D form. Ends that are not written are not given here. Peptide text beside a SMILES is read from it. Pro(trans-4-F) = O=C(O)[C@@H]1C[C@@H](F)CN1; X2 = C[C@@H]1CC[C@@H](C(=O)[*:2])N1[*:1]; Pro(4,4-Me2) = CC1(C)CN[C@H](C(=O)O)C1; d(cisHyp) = O=C(O)[C@H]1C[C@@H](O)CN1; Pro(4-oxo) = O=C1CN[C@H](C(=O)O)C1; cisHyp = O=C(O)[C@@H]1C[C@H](O)CN1; Hyp = O=C(O)[C@@H]1C[C@@H](O)CN1; dHyp = O=C(O)[C@H]1C[C@H](O)CN1; pGlu = O=C1CC[C@@H](C(=O)O)N1

What was measured:
[1] = system: rats with dry eye syndrome (extraorbital lacrimal gland excision, ELGE); assay: Amount of tear secretion (Schirmer test, cobalt chloride paper) in ELGE rats with dry eye syndrome; assay type: in vivo, rat; settings: for Tear Volumes, Day 7 / Tear Volumes, Day 14: ELGE rats, 3 mg/ml, 5 μl/eye twice daily; for Tear Volumes, Day 7: day 7 of administration; for Tear Volumes, Day 14: day 14 of administration; for Change in amount of tear secretion as compared with the ELGE control group: study of YDE-029 to YDE-043, 3% solution as printed, after administration for 14 days
In short: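 Dry eye induced in male Sprague-Dawley rats by extraorbital lacrimal gland excision; sham-operated controls. From 7 days post-surgery, 3 mg/ml test compounds in saline given topically at 5 μl/eye twice daily for 14 days. Tear secretion measured on days 7 and 14 as wetted length of cobalt chloride paper held 60 s in the lateral canthus.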

[2] = system: cornea of rats with dry eye syndrome (ELGE); assay: Corneal permeability of fluorescent dye (corneal damage) in ELGE rats with dry eye syndrome; assay type: in vivo, rat; settings: 5 μl/eye twice daily, day 14
In short: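 Dry eye induced in male Sprague-Dawley rats by extraorbital lacrimal gland excision; from day 7, 3 mg/ml compound in saline given at 5 μl/eye twice daily. After 14 doses, rats anaesthetized (Zolethyl 25 mg/kg ip), 1% fluorescein applied 1 h, and corneal staining read 12-24 h later by slit-lamp under blue light.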

[3] = Stability in aqueous solution under long-term storage conditions (related substances); assay type: physicochemical; settings: 25° C., 75% RH
In short: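 Test substances dissolved in water at 1 mg/ml, sealed in glass vials and held at 25° C./75% RH. Related substances measured at 1, 2, 4, 8 and 12 weeks.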

[4] = system: human primary corneal epithelial cells; assay: Cell growth rate of human primary corneal epithelial cells (CellTiter-Glo); assay type: cell-based; settings: 48 hours and 72 hours
Procedure: In order to confirm whether the YDE derivatives could recover corneal damage, the cellular growth rate of human primary corneal epithelial cells was checked.
Specifically, primary corneal epithelial cells (ATCC, ATCC PCS-700-010) were seeded on a 96-well culture plate (Perkin Elmer, 6005680) containing the Corneal Epithelial Cell Basal Medium (ATCC, ATCC PCS-700-030) in the Corneal Epithelial Cell Growth Kit (ATCC, ATCC PCS-700-040) in an amount of 5×10^3 cells per well, which was then cultured for 24 hours under the conditions of 37° C. and 5% CO2.
YDE-001 to YDE-075 were each dissolved in 100% DMSO (Sigma, D2660) to a concentration of 10 mM, which was then diluted with 100% DMSO to a concentration of the compound of 6, 1.9, 0.6, 0.2, 0.06, 0.02, 0.006, and 0.002 mM. 20 μl of the diluted YDE derivative was added to a 96-well microplate (Greiner Bio-One, 651201) containing 380 μl of the Corneal Epithelial Cell Basal Medium such that the concentration of DMSO was diluted to 5%.
After 24 hours, 20 μl of each of the YDE derivatives diluted in the 96-well microplate was added to the 96-well culture plate containing the cells. As a control group, hEGF (Sigma, E9644) was treated at the same concentration as the YDE derivatives. The cells treated with the YDE-derivatives or hEGF were cultured for 48 hours and 72 hours under the conditions of 37° C. and 5% CO2 (FIGS. 18 to 25).
The cultured cells were treated with the CellTiter-Glo luminescent reagent (Promega, G7573) according to the manufacturer's instructions and reacted for 30 minutes at room temperature. Thereafter, the fluorescent signal (or luminescence signal) was checked using an Envision 2014 Multi-label plate reader. The measured values were normalized using a vehicle control (100% proliferation cell).

[5] = Table 4, study of YDE-001 to YDE-028
[6] = Table 5, study of YDE-029 to YDE-043
[7] = Table 7, study of YDE-029 to YDE-043, 3 mg/ml

Row | Compound | Tear Volumes, Day 7 [1, 5] | Tear Volumes, Day 14 [1, 5] | Permeability of fluorescent dye ([2]; Table 6, study of YDE-001 to YDE-028, 3 mg/ml) | Amount of related substances (after 12 weeks) [3] | Cell proliferation rate (in words) [4] | Tear Volumes, Day 7 [1, 6] | Tear Volumes, Day 14 [1, 6] | Change in amount of tear secretion as compared with the ELGE control group [1] | Permeability of fluorescent dye [2, 7]
1 | CC(C)C[C@H](NC(=O)CNC(=O)[C@H](CC(C)C)NC(=O)[C@H](CCC(N)=O)NC(=O)CNC(=O)[C@@H]1C[C@@H](O)CN1)C(=O)N[C@@H](C)C(=O)NCC(=O)N1CCC[C@H]1C(=O)N[C@@H](CCCCN)C(=O)O [YDE-011, H-Hyp-Gly-Gln-Leu-Gly-Leu-Ala-Gly-Pro-Lys-OH AcOH salt] (H-[Hyp]GQLGLAGPK-OH) | 4.22 ± 1.45 mm^3 | 6.16 ± 2.16 mm^3 | 18.11 ± 11.61% | 3.83% | high cell proliferation rate |  |  |  | 
2 | CC(C)C[C@H](NC(=O)CNC(=O)[C@H](CC(C)C)NC(=O)[C@H](CCC(N)=O)NC(=O)CNC(=O)[C@@H]1C[C@H](O)CN1)C(=O)N[C@@H](C)C(=O)NCC(=O)N1CCC[C@H]1C(=O)N[C@@H](CCCCN)C(=O)O [YDE-034] (H-[cisHyp]GQLGLAGPK-OH) |  |  |  | 1.25% |  | 6.16 ± 1.01 mm^3 | 6.43 ± 1.86 mm^3 | did not show any significant changes | 32.17 ± 12.94%
3 | CC(C)C[C@H](NC(=O)CNC(=O)[C@H](CC(C)C)NC(=O)[C@H](CCC(N)=O)NC(=O)CNC(=O)[C@@H]1CC(=O)CN1)C(=O)N[C@@H](C)C(=O)NCC(=O)N1CCC[C@H]1C(=O)N[C@@H](CCCCN)C(=O)O [YDE-035] (H-[Pro(4-oxo)]GQLGLAGPK-OH) |  |  |  | 3.89% |  | 4.96 ± 0.96 mm^3 | 6.25 ± 0.79 mm^3 |  | 27.62 ± 6.51%
4 | CC(C)C[C@H](NC(=O)CNC(=O)[C@H](CC(C)C)NC(=O)[C@H](CCC(N)=O)NC(=O)CNC(=O)[C@@H]1CCC(=O)N1)C(=O)N[C@@H](C)C(=O)NCC(=O)N1CCC[C@H]1C(=O)N[C@@H](CCCCN)C(=O)O [YDE-036] ([pGlu]GQLGLAGPK-OH) |  |  |  | 8.77% |  | 4.95 ± 1.05 mm^3 | 5.13 ± 1.03 mm^3 | did not show any significant changes | 57.87 ± 22.91%
5 | CC(C)C[C@H](NC(=O)CNC(=O)[C@H](CC(C)C)NC(=O)[C@H](CCC(N)=O)NC(=O)CNC(=O)[C@@H]1C[C@@H](F)CN1)C(=O)N[C@@H](C)C(=O)NCC(=O)N1CCC[C@H]1C(=O)N[C@@H](CCCCN)C(=O)O [YDE-039] (H-[Pro(trans-4-F)]GQLGLAGPK-OH) |  |  |  | 2.19% |  | 6.04 ± 1.01 mm^3 | 6.44 ± 1.96 mm^3 |  | 29.94 ± 11.40%
6 | CC(C)C[C@H](NC(=O)CNC(=O)[C@H](CC(C)C)NC(=O)[C@H](CCC(N)=O)NC(=O)CNC(=O)[C@@H]1CC(C)(C)CN1)C(=O)N[C@@H](C)C(=O)NCC(=O)N1CCC[C@H]1C(=O)N[C@@H](CCCCN)C(=O)O [YDE-040] (H-[Pro(4,4-Me2)]GQLGLAGPK-OH) |  |  |  | 3.58% |  | 5.77 ± 1.05 mm^3 | 8.63 ± 1.53 mm^3 |  | 18.33 ± 9.41%
7 | CC(C)C[C@H](NC(=O)CNC(=O)[C@H](CC(C)C)NC(=O)[C@H](CCC(N)=O)NC(=O)CNC(=O)[C@@H]1C[C@@H](O)CN1)C(=O)N[C@@H](C)C(=O)O [YDE-041] (H-[Hyp]GQLGLA-OH) |  |  |  | 3.04% |  | 5.01 ± 1.26 mm^3 | 6.25 ± 2.15 mm^3 | did not show any significant changes | 46.38 ± 26.65%
8 | CC(C)C[C@H](NC(=O)CNC(=O)[C@H](CC(C)C)NC(=O)[C@H](CCC(N)=O)NC(=O)CNC(=O)[C@@H]1C[C@@H](O)CN1)C(=O)O [YDE-042] (H-[Hyp]GQLGL-OH) |  |  |  | 3.98% |  | 6.30 ± 1.08 mm^3 | 7.97 ± 1.48 mm^3 |  | 20.72 ± 11.37%
9 | CC(C)C[C@H](NC(=O)[C@H](CCC(N)=O)NC(=O)CNC(=O)[C@@H]1C[C@@H](O)CN1)C(=O)NCC(=O)O [YDE-043] (H-[Hyp]GQLG-OH) |  |  |  | 3.43% |  | 5.90 ± 1.06 mm^3 | 8.16 ± 1.42 mm^3 |  | 19.04 ± 7.36%
10 | CC(C)C[C@H](NC(=O)CNC(=O)[C@H](CC(C)C)NC(=O)[C@H](CCC(N)=O)NC(=O)CNC(=O)[C@@H]1CC[C@@H](C)N1)C(=O)N[C@@H](C)C(=O)NCC(=O)N1CCC[C@H]1C(=O)N[C@@H](CCCCN)C(=O)O [YDE-045] (H-[X2]GQLGLAGPK-OH) |  |  |  |  | high cell proliferation rate |  |  |  | 
11 | CC(C)C[C@H](NC(=O)CNC(=O)[C@H](CC(C)C)NC(=O)[C@H](CCC(N)=O)NC(=O)CNC(=O)[C@H]1C[C@H](O)CN1)C(=O)N[C@@H](C)C(=O)NCC(=O)N1CCC[C@H]1C(=O)N[C@@H](CCCCN)C(=O)O [YDE-057] (H-[dHyp]GQLGLAGPK-OH) |  |  |  |  | high cell proliferation rate |  |  |  | 
12 | CC(C)C[C@@H](NC(=O)CNC(=O)[C@@H](CC(C)C)NC(=O)[C@@H](CCC(N)=O)NC(=O)CNC(=O)[C@H]1C[C@@H](O)CN1)C(=O)N[C@H](C)C(=O)NCC(=O)N1CCC[C@@H]1C(=O)N[C@H](CCCCN)C(=O)O [YDE-060] (H-[d(cisHyp)]G[dQ][dL]G[dL][dA]G[dP][dK]-OH) |  |  |  |  | high cell proliferation rate |  |  |  | 
13 | PGQLGLAGPK [YDE-037] |  |  |  | 2.88% |  | 4.98 ± 0.66 mm^3 | 5.80 ± 0.90 mm^3 |  | 36.30 ± 9.75%
